The record followed here is PubChem BioAssay AID200 (DTP/NCI, 2004).

“And” between values parts separate entries of the source, which are not always exact repeats. Equal entries are not always repeated. Toxic doses and inconclusive results are not listed.

The assay relates to B6C3F1 mice, B16 melanoma ip, median survival T/C. Kind of assay: NCI In Vivo Anticancer Drug Screen. Data for tumor model B16 Melanoma (intraperitoneal) in B6C3F1 mice. The settings on record: endpoint: median survival time, higher = longer survival. The gist of the method: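 Tumor-bearing mice received test compound; a separate group got vehicle only. Survival was then compared, with results reported as treated over control.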

Setting [1] is: dose: 12.5 mg/kg/injection, schedule: Q01DX009 (ip), vehicle: saline with Tween-80.
[2] abbreviates: dose: 25.0 mg/kg/injection, schedule: Q01DX009 (ip), vehicle: saline with Tween-80.
Setting [3] is: dose: 50.0 mg/kg/injection, schedule: Q01DX009 (ip), vehicle: saline with Tween-80.
The mark [4] stands for this setting: dose: 100.0 mg/kg/injection, schedule: Q01DX009 (ip), vehicle: saline with Tween-80.
Setting [5] is: dose: 200.0 mg/kg/injection, schedule: Q01DX009 (ip), vehicle: saline with Tween-80.
Setting [6] is: dose: 400.0 mg/kg/injection, schedule: Q01DX009 (ip), vehicle: saline with Tween-80.
Where [7] appears, read: dose: 1.56 mg/kg/injection, schedule: Q01DX009 (ip), vehicle: saline with Tween-80.
[8] abbreviates: dose: 3.12 mg/kg/injection, schedule: Q01DX009 (ip), vehicle: saline with Tween-80.
Where [9] appears, read: dose: 6.25 mg/kg/injection, schedule: Q01DX009 (ip), vehicle: saline with Tween-80.

On to `O=[N+]([O-])c1ccc(Sc2ccncn2)c([N+](=O)[O-])c1`, for which the T/C is 92 % of control under setting [1], 105 % of control under setting [2], 92 % of control under setting [3] and 101 % of control under setting [4].

Take `O=C(Nc1cccnc1)c1ccc([N+](=O)[O-])s1`: the T/C is 96 % of control (dose: 1.13 mg/kg/injection, schedule: Q01DX009 (ip), vehicle: saline); 92 % of control (dose: 1.88 mg/kg/injection, schedule: Q01DX009 (ip), vehicle: saline); 97 % of control (dose: 3.13 mg/kg/injection, schedule: Q01DX009 (ip), vehicle: saline); 94 % of control (dose: 5.21 mg/kg/injection, schedule: Q01DX009 (ip), vehicle: saline); 103 % of control (dose: 6.25 mg/kg/injection, schedule: Q01DX009 (ip), vehicle: saline); 89 % of control (dose: 8.69 mg/kg/injection, schedule: Q01DX009 (ip), vehicle: saline). The T/C (dose: 12.5 mg/kg/injection, schedule: Q01DX009 (ip), vehicle: saline) was 97 % of control; the T/C (dose: 25.0 mg/kg/injection, schedule: Q01DX009 (ip), vehicle: saline) is 87 % of control and 99 % of control.

Take `CC(C)(C[NH-])C[NH-].[Cl][Pt+2][Cl]`: the T/C was 111 % of control (dose: 0.25 mg/kg/injection, schedule: Q01DX009 (ip), vehicle: water); 123 % of control (dose: 0.5 mg/kg/injection, schedule: Q01DX009 (ip), vehicle: water); 175 % of control (dose: 2.0 mg/kg/injection, schedule: Q01DX009 (ip), vehicle: water); 168 % of control (dose: 2.0 mg/kg/injection, schedule: Q04DX003 (ip), vehicle: water); 200 % of control (dose: 4.0 mg/kg/injection, schedule: Q04DX003 (ip), vehicle: water).

Turning to `S=C(S)N1CCCNCC1` (tested in a mixture with another compound), the T/C under setting [1] was 107 % of control, the T/C under setting [2] was 100 % of control and the T/C under setting [3] is 92 % of control.

Turning to `CCOC(=O)NC(N)=O`, the T/C was 101 % of control under setting [3], 117 % of control under setting [4], 102 % of control under setting [5] and 105 % of control under setting [6].

As for `COc1cc2c(c3c1c(=O)c1cccc(F)c1n3C)C=CC(C)(C)O2`, the T/C is, setting by setting: (dose: 25.0 mg/kg/injection, schedule: Q01DX009 (ip), vehicle: Klucel (hydroxypropylcellulose) (HPC)) 109 % of control; (dose: 50.0 mg/kg/injection, schedule: Q01DX009 (ip), vehicle: Klucel (hydroxypropylcellulose) (HPC)) 119 % of control; (dose: 100.0 mg/kg/injection, schedule: Q01DX009 (ip), vehicle: Klucel (hydroxypropylcellulose) (HPC)) 88 % of control.

Turning to `N=C(N)c1ccc(/C=C/c2ccc(C(=N)N)cc2)cc1`, the T/C is, setting by setting: (dose: 16.0 mg/kg/injection, schedule: Q01DX009 (ip), vehicle: Klucel (hydroxypropylcellulose) (HPC)) 101 % of control; (dose: 32.0 mg/kg/injection, schedule: Q01DX009 (ip), vehicle: Klucel (hydroxypropylcellulose) (HPC)) 116 % of control; (dose: 32.0 mg/kg/injection, schedule: Q01DX009 (ip), vehicle: saline with Tween-80) 101 % of control; (dose: 64.0 mg/kg/injection, schedule: Q01DX009 (ip), vehicle: Klucel (hydroxypropylcellulose) (HPC)) 97 % of control; (dose: 64.0 mg/kg/injection, schedule: Q01DX009 (ip), vehicle: saline with Tween-80) 101 % of control.

On to `O=NN(CCCl)C(=O)NCCCl`, for which the T/C was 112 % of control and 118 % of control (dose: 1.5 mg/kg/injection, schedule: Q01DX009 (ip), vehicle: alcohol); 108 % of control (dose: 1.5 mg/kg/injection, schedule: Q01DX009 (ip), vehicle: other); 116 % of control (dose: 3.0 mg/kg/injection, schedule: Q01DX009 (ip), vehicle: other); 107 % of control (dose: 5.0 mg/kg/injection, schedule: Q01DX005 (iv), vehicle: saline + alcohol); 184 % of control (dose: 6.0 mg/kg/injection, schedule: Q01DX009 (ip), vehicle: alcohol); 154 % of control (dose: 6.0 mg/kg/injection, schedule: Q01DX009 (ip), vehicle: other). In addition, the T/C by setting is: (dose: 10.0 mg/kg/injection, schedule: Q01DX001 (ip), vehicle: saline + alcohol) 120 % of control; (dose: 10.0 mg/kg/injection, schedule: Q01DX001 (ip), vehicle: saline) 111 % of control and 120 % of control; (dose: 10.0 mg/kg/injection, schedule: Q01DX001 (iv), vehicle: saline + alcohol) 104 % of control; (dose: 10.0 mg/kg/injection, schedule: Q01DX005 (iv), vehicle: saline + alcohol) 124 % of control; (dose: 12.0 mg/kg/injection, schedule: Q01DX009 (ip), vehicle: other) 110 % of control; (dose: 20.0 mg/kg/injection, schedule: Q01DX001 (ip), vehicle: saline + alcohol) 154 % of control. For the same compound, the T/C is 156 % of control (dose: 30.0 mg/kg/injection, schedule: Q01DX001 (ip), vehicle: saline); 175 % of control (dose: 40.0 mg/kg/injection, schedule: Q01DX001 (ip), vehicle: saline + alcohol); 185 % of control (dose: 40.0 mg/kg/injection, schedule: Q01DX001 (iv), vehicle: saline + alcohol).

Regarding `CC(=O)OCC1(C)NC(=O)c2ccccc2O1` (configuration not stated), the T/C by setting is: under setting [1], 88 % of control and 103 % of control; under setting [2], 114 % of control and 103 % of control; under setting [3], 95 % of control and 100 % of control; under setting [4], 92 % of control and 93 % of control; under setting [5], 90 % of control; under setting [6], 86 % of control.

For the compound `C=CC(=O)N1CN(C(=O)C=C)CN(C(=O)C=C)C1`, the T/C was 99 % of control (dose: 0.78 mg/kg/injection, schedule: Q01DX009 (ip), vehicle: saline with Tween-80); 100 % of control under setting [7]; 100 % of control under setting [8]; 106 % of control under setting [9]; 86 % of control under setting [1].

In the case of `CCOC1=Cc2c(oc3c(C(C)(C)C)cc(OCC)cc23)OC(C(C)(C)C)=C1`, the T/C under setting [7] is 97 % of control and 107 % of control; the T/C under setting [8] was 97 % of control and 104 % of control; the T/C under setting [9] is 102 % of control; the T/C under setting [1] was 97 % of control and 106 % of control; the T/C under setting [2] is 113 % of control and 91 % of control; the T/C under setting [3] is 89 % of control and 101 % of control.

For `COc1cc2c(c(OC)c1OC)-c1cccc(=O)cc1C(NC(C)=O)CC2` (configuration not stated), the T/C is 98 % of control (dose: 1.25 mg/kg/injection, schedule: Q01DX009 (ip), vehicle: water); 97 % of control (dose: 2.5 mg/kg/injection, schedule: Q01DX009 (ip), vehicle: saline); 102 % of control (dose: 2.5 mg/kg/injection, schedule: Q01DX009 (ip), vehicle: water); 100 % of control (dose: 5.0 mg/kg/injection, schedule: Q01DX009 (ip), vehicle: saline); 97 % of control (dose: 5.0 mg/kg/injection, schedule: Q01DX009 (ip), vehicle: water); 116 % of control (dose: 10.0 mg/kg/injection, schedule: Q01DX009 (ip), vehicle: saline). For the same compound, the T/C runs as follows: (dose: 10.0 mg/kg/injection, schedule: Q01DX009 (ip), vehicle: water) 96 % of control; (dose: 20.0 mg/kg/injection, schedule: Q01DX009 (ip), vehicle: saline) 99 % of control; (dose: 20.0 mg/kg/injection, schedule: Q01DX009 (ip), vehicle: water) 103 % of control; (dose: 40.0 mg/kg/injection, schedule: Q01DX009 (ip), vehicle: saline) 103 % of control.

For `CC[C@@]1(O)C(=O)OCc2c1cc1n(c2=O)Cc2cc3ccccc3nc2-1`, the T/C by setting is: (dose: 0.1 mg/kg/injection, schedule: Q01DX009 (ip), vehicle: other) 108 % of control; (dose: 1.5 mg/kg/injection, schedule: Q01DX009 (ip), vehicle: saline with Tween-80) 174 % of control; (dose: 3.0 mg/kg/injection, schedule: Q01DX009 (ip), vehicle: saline with Tween-80) 189 % of control.
